Source: ChEMBL document CHEMBL3885861, “Open TG-GATES”

Species: Rattus norvegicus
Assay: Open TG-GATES - Regimen: Single
Format: toxicity, organism-based, Sprague-Dawley
Set-up: regimen Single, gender Male, age 6 weeks
Conditions: in vivo, po, 300 mg/kg, route gavage, dose level Middle; for APTT / Bas / Eos / Fbg / Hb / Ht / Lym / MCH / MCHC / MCV / Mono / Neu / PT / Plat / RBC / Ret / WBC: tissue Blood; for KIDNEY_L / KIDNEY_R / KIDNEY_TOTAL: tissue Kidney; for LIVER: tissue Liver; for A/G / ALP / ALT / AST / BUN / CRE / Ca / Cl / DBIL / GLC / IP / K / LDH / Na / PL / RALB / TBIL / TC / TG / TP / gamma-GTP: tissue Plasma

O=C(OC[C@H]1O[C@@H](OC(=O)c2cc(O)c(O)c(OC(=O)c3cc(O)c(O)c(O)c3)c2)[C@H](OC(=O)c2cc(O)c(O)c(OC(=O)c3cc(O)c(O)c(O)c3)c2)[C@@H](OC(=O)c2cc(O)c(O)c(OC(=O)c3cc(O)c(O)c(O)c3)c2)[C@@H]1OC(=O)c1cc(O)c(O)c(OC(=O)c2cc(O)c(O)c(O)c2)c1)c1cc(O)c(O)c(OC(=O)c2cc(O)c(O)c(O)c2)c1 [TANNIC ACID]
TERMINAL_BW (3 h): 187.9 g | APTT (3 h): 16.5 s | Bas (3 h): 0% | Eos (3 h): 1% | Fbg (3 h): 212 mg/dL | Hb (3 h): 12.7 g/dL | Ht (3 h): 37.9% | Lym (3 h): 78.6% | MCH (3 h): 21.9 pg | MCHC (3 h): 33.4% | MCV (3 h): 65.5 fL | Mono (3 h): 7.6% | Neu (3 h): 13.4% | PT (3 h): 11.6 s | Plat (3 h): 101.9 x10_4/uL | RBC (3 h): 579.2 x10_4/ul | Ret (3 h): 9.9% | WBC (3 h): 113.5 x10_2/uL | KIDNEY_L (3 h): 0.9 g | KIDNEY_R (3 h): 0.9 g | KIDNEY_TOTAL (3 h): 1.8 g | LIVER (3 h): 8.5 g | A/G (3 h): 2.2 | ALP (3 h): 1029.8 IU/L | ALT (3 h): 37.6 IU/L | AST (3 h): 68.6 IU/L | BUN (3 h): 13.6 mg/dL | CRE (3 h): 0.5 mg/dL | Ca (3 h): 10.7 mg/dL | Cl (3 h): 105 meq/L | DBIL (3 h): 0.02 mg/dL | GLC (3 h): 198 mg/dL | IP (3 h): 10.6 mg/dL | K (3 h): 4.7 meq/L | LDH (3 h): 85.8 IU/L | Na (3 h): 139.6 meq/L | PL (3 h): 148.4 mg/dL | RALB (3 h): 3.7 g/dL | TBIL (3 h): 0.5 mg/dL | TC (3 h): 81.6 mg/dL | TG (3 h): 42.4 mg/dL | TP (3 h): 5.3 g/dL | gamma-GTP (3 h): 1.2 IU/L | TERMINAL_BW (6 h): 184.2 g | APTT (6 h): 16.5 s | Bas (6 h): 0% | Eos (6 h): 1% | Fbg (6 h): 214.4 mg/dL | Hb (6 h): 13 g/dL | Ht (6 h): 39.1% | Lym (6 h): 75.4% | MCH (6 h): 22 pg | MCHC (6 h): 33.3% | MCV (6 h): 66.1 fL | Mono (6 h): 8.6% | Neu (6 h): 15.2% | PT (6 h): 12 s | Plat (6 h): 112.5 x10_4/uL | RBC (6 h): 591.4 x10_4/ul | Ret (6 h): 9.6% | WBC (6 h): 93 x10_2/uL | KIDNEY_L (6 h): 0.9 g | KIDNEY_R (6 h): 0.9 g | KIDNEY_TOTAL (6 h): 1.8 g | LIVER (6 h): 8.2 g | A/G (6 h): 1.9 | ALP (6 h): 784.6 IU/L | ALT (6 h): 38.4 IU/L | AST (6 h): 67.2 IU/L | BUN (6 h): 12.2 mg/dL | CRE (6 h): 0.5 mg/dL | Ca (6 h): 10.6 mg/dL | Cl (6 h): 105.6 meq/L | DBIL (6 h): 0.03 mg/dL | GLC (6 h): 184.2 mg/dL | IP (6 h): 10.2 mg/dL | K (6 h): 4.8 meq/L | LDH (6 h): 106.8 IU/L | Na (6 h): 139.2 meq/L | PL (6 h): 133 mg/dL | RALB (6 h): 3.4 g/dL | TBIL (6 h): 0.6 mg/dL | TC (6 h): 74.4 mg/dL | TG (6 h): 32 mg/dL | TP (6 h): 5.2 g/dL | gamma-GTP (6 h): 1.4 IU/L | TERMINAL_BW (9 h): 182 g | APTT (9 h): 16.4 s | Bas (9 h): 0% | Eos (9 h): 1% | Fbg (9 h): 219.8 mg/dL | Hb (9 h): 13 g/dL | Ht (9 h): 39% | Lym (9 h): 74.8% | MCH (9 h): 21.9 pg | MCHC (9 h): 33.3% | MCV (9 h): 65.9 fL | Mono (9 h): 6.8% | Neu (9 h): 17.2% | PT (9 h): 12.1 s | Plat (9 h): 122.2 x10_4/uL | RBC (9 h): 592.8 x10_4/ul | Ret (9 h): 11% | WBC (9 h): 92.9 x10_2/uL | KIDNEY_L (9 h): 0.8 g | KIDNEY_R (9 h): 0.8 g | KIDNEY_TOTAL (9 h): 1.6 g | LIVER (9 h): 7.5 g | A/G (9 h): 2.1 | ALP (9 h): 836.4 IU/L | ALT (9 h): 35 IU/L | AST (9 h): 60.6 IU/L | BUN (9 h): 12.6 mg/dL | CRE (9 h): 0.4 mg/dL | Ca (9 h): 10.4 mg/dL | Cl (9 h): 105.4 meq/L | DBIL (9 h): 0.034 mg/dL | GLC (9 h): 191.4 mg/dL | IP (9 h): 10 mg/dL | K (9 h): 5.1 meq/L | LDH (9 h): 92.2 IU/L | Na (9 h): 137.2 meq/L | PL (9 h): 126.8 mg/dL | RALB (9 h): 3.7 g/dL | TBIL (9 h): 0.5 mg/dL | TC (9 h): 70.4 mg/dL | TG (9 h): 32.4 mg/dL | TP (9 h): 5.4 g/dL | gamma-GTP (9 h): 1.8 IU/L | TERMINAL_BW (24 h): 201.5 g | APTT (24 h): 15.9 s | Bas (24 h): 0% | Eos (24 h): 0.8% | Fbg (24 h): 217.8 mg/dL | Hb (24 h): 13 g/dL | Ht (24 h): 38.9% | Lym (24 h): 75% | MCH (24 h): 22 pg | MCHC (24 h): 33.4% | MCV (24 h): 65.8 fL | Mono (24 h): 8.2% | Neu (24 h): 16.2% | PT (24 h): 11.7 s | Plat (24 h): 110.3 x10_4/uL | RBC (24 h): 591.6 x10_4/ul | Ret (24 h): 9.5% | WBC (24 h): 114.2 x10_2/uL | KIDNEY_L (24 h): 0.9 g | KIDNEY_R (24 h): 0.9 g | KIDNEY_TOTAL (24 h): 1.8 g | LIVER (24 h): 10.2 g | A/G (24 h): 1.7 | ALP (24 h): 852.4 IU/L | ALT (24 h): 44.4 IU/L | AST (24 h): 67.8 IU/L | BUN (24 h): 18.4 mg/dL | CRE (24 h): 0.5 mg/dL | Ca (24 h): 10.8 mg/dL | Cl (24 h): 103.8 meq/L | DBIL (24 h): 0.002 mg/dL | GLC (24 h): 193.8 mg/dL | IP (24 h): 9.1 mg/dL | K (24 h): 4.4 meq/L | LDH (24 h): 109.6 IU/L | Na (24 h): 138.8 meq/L | PL (24 h): 139 mg/dL | RALB (24 h): 3.5 g/dL | TBIL (24 h): 0.3 mg/dL | TC (24 h): 75.2 mg/dL | TG (24 h): 103.8 mg/dL | TP (24 h): 5.6 g/dL | gamma-GTP (24 h): 1.2 IU/L
